# Assay results taken from US8530430B2, “TTK peptides and vaccines including the same” (Oncotherapy Science, Inc., priority 2009, dated 2013).
# Key:
# peptide-pulsed T2 cells [1] = assay: IFN-gamma ELISPOT assay on CTLs induced with TTK peptides; assay type: cell-based, human; conditions: wells of CTLs stimulated with the peptide, against peptide-pulsed target cells compared to control wells
# Text: Monocyte-derived dendritic cells (DCs) were used as antigen-presenting cells (APCs) to induce cytotoxic T lymphocyte (CTL) responses against peptides presented on human leukocyte antigen (HLA). DCs were generated in vitro as described elsewhere (Nakahara S et al., Cancer Res 2003 Jul. 15, 63(14): 4112-8). Specifically, peripheral blood mononuclear cells (PBMCs) isolated from a normal volunteer (HLA-A*0201 positive) by Ficoll-Plaque (Pharmacia) solution were separated by adherence to a plastic tissue culture dish (Becton Dickinson) so as to enrich them as the monocyte fraction. The monocyte-enriched population was cultured in the presence of 1,000 U/ml of granulocyte-macrophage colony-stimulating factor (GM-CSF) (R&D System) and 1,000 U/ml of interleukin (IL)-4 (R&D System) in AIM-V Medium (Invitrogen) containing 2% heat-inactivated autologous serum (AS). After 7 days of culture, the cytokine-induced DCs were pulsed with 20 micro-g/ml of each of the synthesized peptides in the presence of 3 micro-g/ml of beta 2-microglobulin for 3 hrs at 37 degrees C. in AIM-V Medium. The generated cells appeared to express DC-associated molecules, such as CD80, CD83, CD86 and HLA class II, on their cell surfaces (data not shown). These peptide-pulsed DCs were then inactivated by X-irradiation (20 Gy) and mixed at a 1:20 ratio with autologous CD8+ T cells, obtained by positive selection with CD8 Positive Isolation Kit (Dynal). These cultures were set up in 48-well plates (Corning); each well contained 1.5×10^4 peptide-pulsed DCs, 3×10^5 CD8+ T cells and 10 ng/ml of IL-7 (R&D System) in 0.5 ml of AIM-V/2% AS medium. Three days later, these cultures were supplemented with IL-2 (CHIRON) to a final concentration of 20 IU/ml. On days 7 and 14, the T cells were further stimulated with the autologous peptide-pulsed DCs. The DCs were prepared each time by the same way described above. CTL was tested against peptide-pulsed T2 cells after the 3rd round of peptide stimulation on day 21 (Tanaka H et al., Br J Cancer 2001 Jan. 5, 84(1): 94-9; Umano Y et al., Br J Cancer 2001 Apr. 20, 84(8): 1052-7; Uchida N et al., Clin Cancer Res 2004 Dec. 15, 10(24): 8577-86; Suda T et al., Cancer Sci 2006 May, 97(5): 411-9; Watanabe T et al., Cancer Sci 2005 August, 96(8): 498-506).
# (§1) Specifically, peptide-pulsed T2 (1×10^4/well) was prepared as stimulator cells. Cultured cells in 48 wells were used as responder cells. IFN-gamma ELISPOT assay and IFN-gamma ELISA assay were performed under manufacture procedure.
# peptide-pulsed T2 cells [2] = assay: IFN-gamma ELISA assay of established CTL lines and CTL clone; assay type: cell-based, human; conditions: for IFN-gamma production of CTL lines: CTL line established with the peptide, target cells pulsed with corresponding peptide vs without peptide pulse
# Experimental: CTLs were expanded in culture using the method similar to the one described by Riddell et al. (Walter E A et al., N Engl J Med 1995 Oct. 19, 333(16): 1038-44; Riddell S R et al., Nat Med 1996 February, 2(2): 216-23). A total of 5×10^4 CTLs were resuspended in 25 ml of AIM-V/5% AS medium with 2 kinds of human B-lymphoblastoid cell lines, inactivated by Mitomycin C, in the presence of 40 ng/ml of anti-CD3 monoclonal antibody (Pharmingen). One day after initiating the cultures, 120 IU/ml of IL-2 were added to the cultures. The cultures were fed with fresh AIM-V/5% AS medium containing 30 IU/ml of IL-2 on days 5, 8 and 11 (Tanaka H et al., Br J Cancer 2001 Jan. 5, 84(1): 94-9; Umano Y et al., Br J Cancer 2001 Apr. 20, 84(8): 1052-7; Uchida N et al., Clin Cancer Res 2004 Dec. 15, 10(24): 8577-86; Suda T et al., Cancer Sci 2006 May, 97(5): 411-9; Watanabe T et al., Cancer Sci 2005 August, 96(8): 498-506).
# The dilutions were made to have 0.3, 1, and 3 CTLs/well in 96 round-bottomed micro titer plate (Nalge Nunc International). CTLs were cultured with 1×10^4 cells/well of 2 kinds of human B-lymphoblastoid cell lines, 30 ng/ml of anti-CD3 antibody, and 125 U/ml of IL-2 in a total of 150 micro-l/well of AIM-V Medium containing 5% AS. 50 micro-1/well of IL-2 were added to the medium 10 days later so to reach a final concentration of 125 U/ml IL-2. CTL activity was tested on the 14th day, and CTL clone was expanded using the same method as described above (Uchida N et al., Clin Cancer Res 2004 Dec. 15, 10(24): 8577-86; Suda T et al., Cancer Sci 2006 May, 97(5): 411-9; Watanabe T et al., Cancer Sci 2005 August, 96(8): 498-506).
# as §1
# [3] = system: COS7 transfected with both the full length TTK gene and the HLA-A*0201 molecule; conditions: results of WO2008/102557 duplicated as FIG. 4; cited from earlier work
# [4] = system: COS7 cells transfected with both the full length of TTK and HLA-A*0201 gene; assay: Specific CTL activity against target cells expressing TTK and HLA-A*0201; assay type: cell-based, African green monkey
# Text: (§2) The cDNA encoding an open reading frame of target genes or HLA-A*0201 was amplified by PCR. The PCR-amplified products were cloned into a vector. The plasmids were transfected into COS7, which is the target genes and HLA-A*0201-negative cell line, using lipofectamine 2000 (Invitrogen) according to the manufacturer's recommended procedures. After 2 days from transfection, the transfected cells were harvested with versene (Invitrogen) and used as the target cells (5×10^4 cells/well) for CTL activity assay.
# (§3) The established CTL lines and clones raised against each peptide were examined for the ability to recognize target cells that express TTK and HLA-A*0201 molecule. […] COS7 cells transfected with either full length of TTK genes or HLA-A*0201 were prepared as controls. […] And then this peptide-HLA complex was recognized by the CTLs.
# [5] = system: COS7 cells transfected with either full length of TTK genes or HLA-A*0201; assay: Specific CTL activity against control COS7 transfectants; assay type: cell-based, African green monkey; conditions: CTL line and clone; COS7 expressing either TTK or HLA-A*0201 only
# Text: as §2, §3
# H1650 cells = assay: Specific CTL activity against HLA-A2 positive, TTK positive tumor cell line; assay type: cell-based, human; conditions: FIG. 3c
# Text: (§4) T2 (HLA-A2), human B-lymphoblastoid cell line and COST, African green monkey kidney cell line, were purchased from ATCC. HLA-A2 positive and TTK positive tumor cell line, H1650, was purchased from ATCC. HLA-A2 negative and TTK positive cell lines, PC-3 and TE-1, were purchased from JCRB Cell bank and RIKEN Cell Bank, respectively.
# as §3
# PC3 cells = assay: Specific CTL activity against HLA-A2 negative, TTK positive control tumor cell line PC-3; assay type: cell-based, human
# Text: as §4, §3
# TE1 cells = assay: Specific CTL activity against HLA-A2 negative, TTK positive control tumor cell line TE-1; assay type: cell-based, human
# Text: as §4, §3
Substance,IFN-gamma production of peptide-induced CTLs (peptide specific CTL activity) (peptide-pulsed T2 cells [1]),IFN-gamma production of CTL lines (peptide-pulsed T2 cells [2]),Specific CTL activity of CTL clones against COS7 transfected with both TTK and HLA-A*0201 [3],also measured
"TTK-A02-9-142: 9-mer HLA-A*0201 binding candidate peptide derived from TTK, SEQ ID NO: 15 (FAFVHISFA)",potent IFN-gamm production,potent IFN-gamma production,–,–
"TTK-A02-9-146: 9-mer HLA-A*0201 binding candidate peptide derived from TTK, SEQ ID NO: 19 (HISFAQFEL)",potent IFN-gamm production,–,–,–
"TTK-A02-9-462: 9-mer HLA-A*0201 binding candidate peptide derived from TTK, SEQ ID NO: 1 (YMSCFRTPV)",potent IFN-gamm production,potent IFN-gamma production,specific CTL activity,–
"TTK-A02-9-547: 9-mer peptide derived from TTK, SEQ ID NO: 5, disclosed in Applicants' WO2008/102557 (KQIYAIKYV)",–,–,specific CTL activity,–
"TTK-A02-9-564: 9-mer HLA-A*0201 binding candidate peptide derived from TTK, SEQ ID NO: 20 (TLDSYRNEI)",potent IFN-gamm production,–,–,–
"TTK-A02-9-593: nonapeptide derived from TTK, HLA-A2 restricted epitope peptide, SEQ ID NO: 3 (ITDQYIYMV)",potent IFN-gamm production,potent IFN-gamma production,–,"IFN-gamma production of CTL clone (peptide-pulsed T2 cells [2]; CTL clone established by limiting dilution from the CTL line, target cells pulsed with peptide): Potent IFN-gamma productions; CTL activity of CTL clone against COS7 cells expressing both TTK and HLA-A*0201 ([4]; CTL clone stimulated with the peptide as effector cells (FIG. 3b)): potent CTL activity; CTL activity of CTL line against COS7 cells expressing both TTK and HLA-A*0201 ([4]; CTL line stimulated with the peptide as effector cells (FIG. 3a)): potent CTL activity; Increase in the IFN-gamma production compared to the peptides of WO2008/102557 ([4]; compared to TTK-A2-9-462, TTK-A02-9-547, TTK-A2-9-719 and TTK-A2-10-462 (FIG. 3 vs FIG. 4)): one or two orders of magnitude; Specific CTL activity against the controls [5]: no significant specific CTL activity was detected; Specific CTL activity of CTL clone against tumor cell line endogenously expressing both TTK and HLA-A*0201 (H1650 cells): specific CTL activity; Specific CTL activity of CTL clone against control tumor cells (PC3 cells): no significant specific CTL activity was detected; Specific CTL activity of CTL clone against control tumor cells (TE1 cells): no significant specific CTL activity was detected"
"TTK-A02-9-630: 9-mer HLA-A*0201 binding candidate peptide derived from TTK, SEQ ID NO: 2 (NMLEAVHTI)",potent IFN-gamm production,potent IFN-gamma production,–,–
"TTK-A02-9-719: 9-mer HLA-A*0201 binding candidate peptide derived from TTK, SEQ ID NO: 6 (SLGCILYYM)",potent IFN-gamm production,potent IFN-gamma production,specific CTL activity,–
"TTK-A02-10-462: 10-mer HLA-A*0201 binding candidate peptide derived from TTK, SEQ ID NO: 22 (YMSCFRTPVV)",potent IFN-gamm production,potent IFN-gamma production,specific CTL activity,–
"TTK-A02-10-542: 10-mer HLA-A*0201 binding candidate peptide derived from TTK, SEQ ID NO: 34 (VLNEKKQIYA)",potent IFN-gamm production,–,–,–
"TTK-A02-10-661: 10-mer HLA-A*0201 binding candidate peptide derived from TTK, SEQ ID NO: 35 (KLIDFGIANQ)",potent IFN-gamm production,–,–,–
